The values that follow come from patent US20170182047A9, “Post-Translational Regulation of Catalytic Activities of Cytochrome P450 46A1 and Uses Thereof” (The Board of Regents of the University of Texas System, priority 2007, published 2017).

In test [1] the target is T1, full-length CYP46A1 (Homo sapiens, UniProt Q9Y6A2). Kind of test: Inhibition/stimulation of cholesterol hydroxylase activity at fixed 43 μM test compound. Type of test: biochemical. The following applies: for inhibition of cholesterol hydroxylation (in words): FIG. 4A-4C; for Activity: cholesterol hydroxylation by CYP46A1, % of no compound; for inhibition at 43 µM: read-out: inhibition of the CYP46A1; for CHO hydroxylation: remaining activity, None = 100, 43 μM added steroid.
T1 sequence (Q9Y6A2 whole entry): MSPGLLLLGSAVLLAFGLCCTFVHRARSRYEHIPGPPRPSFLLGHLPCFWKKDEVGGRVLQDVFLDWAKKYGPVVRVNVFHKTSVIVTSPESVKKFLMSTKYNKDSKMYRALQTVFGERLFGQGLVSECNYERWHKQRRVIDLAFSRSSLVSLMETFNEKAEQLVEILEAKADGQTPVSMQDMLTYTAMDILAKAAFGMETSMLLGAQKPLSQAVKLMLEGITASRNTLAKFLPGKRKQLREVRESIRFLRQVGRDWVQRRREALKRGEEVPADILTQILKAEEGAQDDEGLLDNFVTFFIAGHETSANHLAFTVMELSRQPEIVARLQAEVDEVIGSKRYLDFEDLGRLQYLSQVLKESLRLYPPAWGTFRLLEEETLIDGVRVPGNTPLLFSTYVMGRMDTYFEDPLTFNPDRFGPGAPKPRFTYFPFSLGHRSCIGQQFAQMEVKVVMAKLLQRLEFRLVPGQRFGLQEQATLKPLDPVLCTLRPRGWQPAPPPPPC

Test [2] addresses T2, CYP46A1 (Homo sapiens, UniProt Q9Y6A2). Put plainly: Spectral binding studies. Also on record: 4×His (C). As for the experimental part:
(§1) Titrations of CYP46A1dH were carried out in 50 mM KPi, pH 7.2, containing 100 mM NaCl and 0.02% Cymal-6. Steroids were added from 0.2-5 mM stocks in 2.5-45% aqueous 2-hydroxypropyl-p-cyclodextrin; clobenpropit, thioperamide, phenacetin, acetaminophen, 4′-(2-hydroxyethoxy)-acetanilide, quinine, quinidine, lansoprazole, and dapsone were dissolved in water, and tranylcypromine in 50% MetOH. The Kd and maximal absorbance change were estimated by non-linear least squares fitting using the quadratic form of the single-site binding equation (30).
Target sequence in this assay (Q9Y6A2 with tags, fused parts or gaps): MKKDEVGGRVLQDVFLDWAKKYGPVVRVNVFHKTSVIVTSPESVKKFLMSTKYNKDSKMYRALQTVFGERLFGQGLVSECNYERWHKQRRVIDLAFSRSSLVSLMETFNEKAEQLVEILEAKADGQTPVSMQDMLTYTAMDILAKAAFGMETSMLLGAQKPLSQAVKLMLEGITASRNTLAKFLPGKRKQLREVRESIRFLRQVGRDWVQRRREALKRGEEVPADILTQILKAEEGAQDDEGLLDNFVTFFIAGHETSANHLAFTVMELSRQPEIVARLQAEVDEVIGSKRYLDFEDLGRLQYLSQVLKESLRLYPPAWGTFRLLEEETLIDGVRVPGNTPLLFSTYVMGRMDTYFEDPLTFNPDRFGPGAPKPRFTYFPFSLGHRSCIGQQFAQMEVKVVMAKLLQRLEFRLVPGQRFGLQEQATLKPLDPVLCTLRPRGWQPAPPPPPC

Test [3] has as its target T2, CYP46A1. Put plainly: Spectral binding studies. The following applies: Table 2. Also on record: fused on or other part: C-terminal 4xHis tag (dH). The method, then: as §1
Target sequence in this assay (Q9Y6A2 whole entry): as the sequence (Q9Y6A2 whole entry) above
In another test the target is Δ(2-50)CYP46A1dH (Homo sapiens, UniProt Q9Y6A2). Put plainly: Kinetic studies, reconstituted system with cytochrome P450 reductase, truncated CYP46A1. To be noted: compound as substrate; for kcat: Δ(2-50) CYP46A1 with C-terminal 4x His-tag, 37° C.
Chain of Δ(2-50)CYP46A1dH (Q9Y6A2 with tags, fused parts or gaps): as the sequence (Q9Y6A2 with tags, fused parts or gaps) above
The target in test [4] is T1, full-length CYP46A1. Kind of test: Kinetic studies, reconstituted system with cytochrome P450 reductase, full-length CYP46A1. To be noted: compound as substrate; for kcat: Full-length CYP46A1 with C-terminal 4x His-tag, 37° C.
Experimental: (§2) The ability of recombinant CYP46A1 to metabolize CH-3S was tested using the reconstituted with cytochrome P450 reductase in vitro system. After termination of the enzyme reaction, the substrate and products were extracted, solvolyzed, converted into trimethylsilyl ethers and analyzed by gas chromatography-mass spectrometry as described (23). […] The reaction conditions were optimized for the formation of only one product.
(§3) The reconstituted system (1 ml) contained 0.1-0.25 μM P450, 0.5 μM NADPH cytochrome P450 oxidoreductase, varying concentrations of cold substrate (1-75 μM), 250,000 cpm of radiolabeled substrate, and 2U of catalase. […] The organic phase was isolated, evaporated, dissolved in acetonitrile, and subjected to HPLC. […] Substrate metabolism was <18% and linear with reaction time and enzyme concentration.
Test [5] concerns the target T2, CYP46A1. Put plainly: In vitro IC50 and Ki for CYP46A1-catalysed hydroxylation. Type of test: biochemical. Details: Recombinant full-length human CYPs 46A1 and 27A1 and bovine CYP11A1 were expressed and purified; made in house. The following applies: Ki = IC50/2 assuming competitive inhibition; 5.4 μM cholesterol (at Km); read-out: Ki. As for the experimental part: Cholesterol hydroxylation by CYP46A1 was assayed for 20 min at 37° C. in 1 ml of 50 mM KPi, pH 7.2, containing 100 mM NaCl, 0.02% Cymal 6, 40 μg dilauroylglycerol-3-phosphatidylcholine and 2U of catalase. […] The enzymatic reaction was initiated by NADPH (final 1 mM) and terminated by vortexing with 2 ml of CH2Cl2. The organic phase was isolated, evaporated, dissolved in methanol, and subjected to HPLC. […] In addition, the Ki for cholesterol 24-hydroxylation was estimated assuming a model of competitive inhibition.
Target sequence in this assay (Q9Y6A2 whole entry): as the sequence (Q9Y6A2 whole entry) above

[6] abbreviates: 2.7 μM cholesterol, 43 μM compound.
Setting [7] is: 2.7 μM cholesterol, 43 μM compound, FIG. 4B, 4D, 4E.

Structures can show the parent of a compound that is named as a salt. Where two headings read alike, the source gives them in different places.

The term inhibition denotes the drop in the measured response relative to a control, in per cent. As a reminder, the Kd is the concentration at which binding is half-saturated. Usually kcat stands for the maximal rate divided by the concentration of active sites. By Km is commonly meant the concentration of substrate that gives half-maximal velocity. For orientation: Ki means the equilibrium dissociation constant of an inhibitor or competing ligand from its target.

Experimental for Δ(2-50)CYP46A1dH: as §2, §3

Regarding `Clc1ccccc1C(c1ccccc1)(c1ccccc1)n1ccnc1` [clotrimazole], the “inhibition of cholesterol hydroxylation (in words)” value (from here on “inhibition … (in words)”) at full-length CYP46A1 [1] (setting [6]) is on record as “significant inhibition”. For the molecule `CCOc1ccc(NC(C)=O)cc1` [Phenacetin], the Activity at full-length CYP46A1 [1] (43 μM compound) was determined as 135 ± 5%. On to `CNC(=C[N+](=O)[O-])NCCSCc1ccc(CN(C)C)o1` [ranitidine], for which the inhibition at 43 µM on full-length CYP46A1 [1] (setting [7]) is greater than 90%. Turning to `CC(C)CCC[C@@H](C)[C@H]1CC[C@H]2[C@@H]3CC=C4C[C@@H](OS(=O)(=O)O)CC[C@]4(C)[C@H]3CC[C@]12C` [Cholesterol-SO4, cholesterol sulfate], the values for the Kd at CYP46A1 [2] and on CYP46A1 [3] were 7 nM and 50 ± 3 nM, respectively. Besides, the values for the kcat at Δ(2-50)CYP46A1dH and on full-length CYP46A1 [4] were 0.0417 s⁻¹ and 0.00767 s⁻¹, respectively.

Regarding `CNC(=C[N+](=O)[O-])NCCSCc1csc(CN(C)C)n1` [nizatidine], the “inhibition … (in words)” value on full-length CYP46A1 [1] (setting [6]) is given as “inhibited cholesterol hydroxylation”. For `CC(=O)Nc1ccc(OCCO)cc1` [Phenacetin analog 1, 4′-(2-hydroxyethoxy)-acetanilide], on full-length CYP46A1 [1] (43 μM compound), the “increase (stimulation) of cholesterol 24-hydroxylation” value came to 45% and the Activity stood at 145 ± 5%. For the molecule `Cc1cccc(C)c1OCC(C)N` (stereo not shown) [Mexiletine], the Activity at full-length CYP46A1 [1] (43 μM compound) was determined as 107 ± 3%. Molecule estradiol sulfate [Estradiol-SO4] returned a CHO hydroxylation at full-length CYP46A1 [1] (2.7 μM cholesterol) of 27 ± 2%. The same measure, in the same setting: under testosterone sulfate [Testosterone-SO4] stands 40 ± 2%. As for `CN/C(=N/CCSCc1nc[nH]c1C)NC#N` [cimetidine], the inhibition at 43 µM at full-length CYP46A1 [1] (setting [7]) is greater than 90%.

As to DHEA sulfate [DHEA-SO4], at full-length CYP46A1 [1] (2.7 μM cholesterol), the CHO hydroxylation turned out to be 33 ± 3%. As to `C[C@]12CC[C@H]3[C@@H](CCC4=CC(=O)CC[C@@]43C)[C@@H]1CC[C@@H]2O` [Testosterone], the CHO hydroxylation on full-length CYP46A1 [1] (2.7 μM cholesterol) is on record as 49 ± 4%.

In the case of `NC(=NCc1ccc(Cl)cc1)SCCCc1cnc[nH]1` [clobenpropit], at full-length CYP46A1 [1], the inhibition at 43 µM is greater than 90%. Consider `S=C(NC1CCCCC1)N1CCC(c2cnc[nH]2)CC1` [thioperamide], for which the “inhibition … (in words)” value at full-length CYP46A1 [1] (setting [6]) is “inhibited cholesterol hydroxylation”. Molecule DHEA gave a CHO hydroxylation on full-length CYP46A1 [1] (2.7 μM cholesterol) of 58 ± 3%.

Consider `CC(=O)[C@H]1CC[C@H]2[C@@H]3CC=C4C[C@@H](O)CC[C@]4(C)[C@H]3CC[C@]12C` [Pregnenolone], for which the CHO hydroxylation on full-length CYP46A1 [1] (2.7 μM cholesterol) is reported as 32 ± 1%. Further, on CYP46A1 [3], the “Spectral Kd” value is recorded as “Not determined, no spectral”. `C[C@]12CC[C@@H]3c4ccc(O)cc4CC[C@H]3[C@@H]1CC[C@@H]2O` [Estradiol]: at full-length CYP46A1 [1] (2.7 μM cholesterol), the CHO hydroxylation came to 32 ± 3%. For `Clc1ccc(-c2c[nH]cn2)cc1` [4-CPi, 4-(4-chlorophenyl)imidazole], the “inhibition … (in words)” value against full-length CYP46A1 [1] (setting [6]) is recorded as “significant inhibition”.

At full-length CYP46A1 [1] (2.7 μM cholesterol), `CC(C)CCC[C@@H](C)[C@H]1CC[C@H]2[C@@H]3CC=C4C[C@@H](O)CC[C@]4(C)[C@H]3CC[C@]12C` [Cholesterol] registered a CHO hydroxylation of 27 ± 3%. The Kd on CYP46A1 [2] (Δ(2-50)CYP46A1dH, read-out: estimated Kd) is 100 nM; at CYP46A1 [3], 670 ± 20 nM.

As for `CC(C)[C@@H](O)CC[C@@H](C)[C@H]1CC[C@H]2[C@@H]3CC=C4C[C@@H](O)CC[C@]4(C)[C@H]3CC[C@]12C` [24OH—CH, 24S-hydroxycholesterol], the Km is 1.5 µM at Δ(2-50)CYP46A1dH (Δ(2-50) CYP46A1) and 3.9 µM at full-length CYP46A1 [4] (Full-length CYP46A1). In addition, the kcat on Δ(2-50)CYP46A1dH amounted to 0.0142 s⁻¹; at full-length CYP46A1 [4] it was 0.0153 s⁻¹. In the case of `NC(N)=Nc1nc(CSCCC(N)=NS(N)(=O)=O)cs1` [famotidine], the “inhibition … (in words)” value against full-length CYP46A1 [1] (setting [6]) is “inhibited cholesterol hydroxylation”. Consider pregnenolone sulfate [Pregnenolone-SO4], for which the CHO hydroxylation on full-length CYP46A1 [1] (2.7 μM cholesterol) stood at 8 ± 2%. Besides, on CYP46A1 [5], the Ki amounted to 2500 nM. In turn, Acetaminophen gave an Activity on full-length CYP46A1 [1] (43 μM compound) of 132 ± 4%.
